For one compound, IC50 results are on record in BindingDB's records for doi:10.1021/jm960128k (University of Illinois At Chicago, 1996).

SMILES strings stand for the structures.

The target in the assay is T1, Dimer of Gag-Pol polyprotein [489-587] (Human immunodeficiency virus 1, UniProt P12497).
T1 construct: 489-587
Briefly: Protease Inhibition Assay. To be noted: pH 5.5; 30 °C. The method, then: The IC50 values for the compounds were determined using purified HIV-1 Protease. Inhibition of the cleavage of the peptide H-Val-Ser-Gln-Asn-(L-beta-napthylalanine)-Pro-Ile-Val-OH was assessed at 30 °C, pH = 5.5 with [Enzyme] = 30 pM for 1 h, using HPLC with UV detection for quantification of the products. For the IC50 data a substrate concentration of 0.4 mg/mL was used, and data was fit to a four parameter sigmoidal equation.

Usually IC50 stands for the point on the concentration scale where inhibition reaches its midpoint. Read a low IC50 as greater potency. For the compound `CC(C)(C)NC(=O)[C@@H]1C[C@@H]2CCCC[C@@H]2CN1C[C@@H](O)[C@H](Cc1ccccc1)NC(=O)O[C@@H]1CO[C@@H]2CCO[C@@H]21` [(3R,3aS,6aR)-hexahydrofuro[3,2-b]furan-3-yl N-[(2S,3R)-4-[(3S,4aS,8aS)-3-(tert-butylcarbamoyl)-decahydroisoquinolin-2-yl]-3-hydroxy-1-phenylbutan-2-yl]carbamate], the IC50 was greater than 3 µM.
